The values below are quoted from earlier work in patent US20240082153A1, “IVERMECTIN FORMULATION IN ORAL SOLUTION” (PROCAPS S.A., priority 2020, published 2024).

The test system of one data set is SARS-CoV-2. As to conditions: in vitro, after 48 hours.

For Ivermectin, the solubility in water entry is listed as “practically insoluble in water”. The “reduction in viral RNA” value in the data set on SARS-CoV-2 is recorded as “approximately 5,000 fold”.
